Results reported in patent publication US8653071B2, “α4β2 neuronal nicotinic acetylcholine receptor ligands” (Suven Life Sciences Limited, priority 2009, dated 2014).

Assays:
[1] = target: Nicotinic Acetylcholine α4β2 Receptor (UniProt P09483+P12390); experiment: Binding assay for human or rat nicotinic acetylcholine α4β2 receptor ([3H]Cytisine displacement); details: [3H]Cytisine 2.5 nM; rat brain frontal cortex or recombinant human receptor in CHO cells (not specified which); read-out: Ki
Male Wister rats [2] = experiment: Object recognition task model; format: in vivo, rat; details: 1 mg/kg, p.o.
Description: Object Recognition Task Model
The cognition-enhancing properties of compounds of this invention were estimated using a model of animal cognition: the object recognition task model.
Male Wister rats (230-280 grams) obtained from N. I. N. (National Institute of Nutrition, Hyderabad, India) was used as experimental animals. Four animals were housed in each cage. […] Also the rats were habituated to individual arenas for 1 hour in the absence of any objects.
One group of 12 rats received vehicle (1 mL/Kg) orally and another set of animals received compound of the formula (I) either orally or i.p., before one hour of the familiar (T1) and choice trial (T2).
The experiment was carried out in a 50×50×50 cm open field made up of acrylic. In the familiarization phase, (T1), the rats were placed individually in the open field for 3 minutes, in which two identical objects (plastic bottles, 12.5 cm height×5.5 cm diameter) covered in yellow masking tape alone (a1 and a2) were positioned in two adjacent corners, 10 cm. from the walls. After 24 hours of the (T1) trial for long-term memory test, the same rats were placed in the same arena as they were placed in T1 trial. Choice phase (T2) rats were allowed to explore the open field for 3 minutes in presence of one familiar object (a3) and one novel object (b) (Amber color glass bottle, 12 cm high and 5 cm in diameter). Familiar objects presented similar textures, colors and sizes. During the T1 and T2 trial, explorations of each object (defined as sniffing, licking, chewing or having moving vibrissae whilst directing the nose towards the object at a distance of less than 1 cm) were recorded separately by stopwatch. Sitting on an object was not regarded as exploratory activity, however, it was rarely observed.
T1 is the total time spent exploring the familiar objects (a1+a2).
T2 is the total time spent exploring the familiar object and novel object (a3+b).
The object recognition test was performed as described by Ennaceur, A., Delacour, J., 1988, A new one-trial test for neurobiological studies of memory in rats—Behavioural data, Behav. Brain Res., 31, 47-59.

Male Wister rats [3] = experiment: Acute food intake study (animal model of hyperphagia); format: in vivo, rat; details: oral
Description: The appetite suppressing properties of compounds of this invention were studied using an animal model of hyperphagia.
Male Wister rats (200-210 grams) obtained from Raj Biotech, India were used as experimental animals. The experiment consisted of 6 days. The rats were adapted to the 18 hour fasting and 6 hour feeding pattern. The animals were housed in a group of three in the cages provided with the fasting grills and were fasted for 18 hours. After 18 hour fasting the rats were separated and placed individually in a cage. Weighed amount of feed was provided to rats for 6 hour and the feed intake at 1, 2, 4 and 6 hours was recorded. Again the rats were regrouped and fasted for 18 hour. The above procedure was followed for 5 days. The average cumulative food intake by the rats on the last 3 days was calculated. Animals were randomised on the basis of their last three days food intake.
One group of 8 rats received vehicle (2 mL/Kg) orally and another set of animals received compound of the formula (I) orally. Then the rats were given access to food and the food intake at 1, 2, 4 and 6 hours was recorded. The food intake by the rats treated with test compound was compared with the vehicle treated group by using students‘t’ test.

Male Sprague Dawley rats = experiment: Effect of test compounds on body weight gain in high fat fed rats; format: in vivo, rat; details: oral for 14 days, high fat diet fed rats
Source text: Effect of Test Compounds on Body Weight Gain in High Fat Fed Rats
The body weight gain suppressing properties of compounds of this invention were studied using a animal model of obesity.
Male Sprague Dawley rats (150-160 grams) obtained from Reliance Life Sciences, India were used as experimental animals. Rats were fed with control diet (normal pellet diet) and lard based high fat diet (45% kcal diet) for 7-8 weeks. High fat diet fed animals was randomized according to their body weights. The animals were housed in a group of 3-4 per cage. One group of 10 rats received vehicle (2 mL/Kg) orally and another set of animals received compound of the formula (I) orally for 14 days. Body weight of the animals was recorded for first three consecutive days then it was recorded twice weekly. Weighed amount of food was given to the animals and food intake was recorded every 24 hour for the entire study period.

in vivo = details: male, Wistar, rat, po, 15 mg/kg
Description: Rodent Brain Penetration Study
Three animals were housed in each cage. Animals were given water and food ad libitum throughout the experiment, and maintained on a 12 hours light/dark cycle.
NCE compound was dissolved in water and administered orally. At Tmax (0.5, 1.0 and 2.0) animals were sacrificed to collect the plasma and brain tissue and were homogenized. Plasma and Brain was stored frozen at −20° C. until analysis. The concentrations of the NCE compound in plasma and Brain were determined using LC-MS/MS method.
The NCE compounds were quantified in plasma and brain homogenate by validated LC-MS/MS method using solid phase extraction technique. NCE compounds were quantified in the calibration range of 1-500 ng/mL in plasma and brain homogenate. Study samples were analyzed using calibration samples in the batch and quality control samples spread across the batch. Extents of brain-blood ratio were calculated (Cb/Cp).

## CNCC1CC2CC2N1c1cccnc1.Cl (stereo not drawn) [Example 4, N-[2-(Pyridin-3-yl)-2-azabicyclo[3.1.0]hex-3-ylmethyl]methylamine hydrochloride]
[1]
  Ki: 59.4 nM
Male Wister rats [2]
  Inference: Active
Male Wister rats [2]; choice trial
  Exploration time mean ± S.E.M, Familiar object: 7.64 ± 1.052 s
  Exploration time mean ± S.E.M, Novel object: 14.21 ± 2.364 s
Male Wister rats [3]
  Inference: Active
Male Wister rats [3]; 1 Hour, 18 hour fasted rats
  % Suppression of food intake compared to vehicle, 1 Hour: 38.45%
Male Wister rats [3]; 2 Hour, 18 hour fasted rats
  % Suppression of food intake compared to vehicle, 2 Hour: 30.23%
Male Wister rats [3]; 4 Hour, 18 hour fasted rats
  % Suppression of food intake compared to vehicle, 4 Hour: 25.60%
Male Wister rats [3]; 6 Hour, 18 hour fasted rats
  % Suppression of food intake compared to vehicle, 6 Hour: 18.63%
Male Sprague Dawley rats
  Inference: Active
Male Sprague Dawley rats; Day 14
  % Reduction in body weight gain compared to vehicle (Day 14): 3.3%
In vivo
  Kp: 11.7 ± 2.66
